Assay results published in patent US9382258B2, “Agents for treating pain and uses thereof” (AbbVie Inc., priority 2012, dated 2016).

What was measured:
human Cav2.2 = target: T1, human Cav2.2 (Homo sapiens, UniProt Q00975); experiment: Calcium flux (FLIPR, Calcium 4 dye) in IMR32 cells endogenously expressing human Cav2.2; format: cell-based; conditions: 60 minute pre-incubation, 2 μM nifedipine to block L-type channels, depolarized with 80 mM KCl, 5 mM CaCl2, average of n≥2 runs unless marked *
T1 construct: cells endogenously expressing human Cav2.2; endogenous in cells; host or cells: IMR32 cells
T1 sequence (Q00975 whole entry): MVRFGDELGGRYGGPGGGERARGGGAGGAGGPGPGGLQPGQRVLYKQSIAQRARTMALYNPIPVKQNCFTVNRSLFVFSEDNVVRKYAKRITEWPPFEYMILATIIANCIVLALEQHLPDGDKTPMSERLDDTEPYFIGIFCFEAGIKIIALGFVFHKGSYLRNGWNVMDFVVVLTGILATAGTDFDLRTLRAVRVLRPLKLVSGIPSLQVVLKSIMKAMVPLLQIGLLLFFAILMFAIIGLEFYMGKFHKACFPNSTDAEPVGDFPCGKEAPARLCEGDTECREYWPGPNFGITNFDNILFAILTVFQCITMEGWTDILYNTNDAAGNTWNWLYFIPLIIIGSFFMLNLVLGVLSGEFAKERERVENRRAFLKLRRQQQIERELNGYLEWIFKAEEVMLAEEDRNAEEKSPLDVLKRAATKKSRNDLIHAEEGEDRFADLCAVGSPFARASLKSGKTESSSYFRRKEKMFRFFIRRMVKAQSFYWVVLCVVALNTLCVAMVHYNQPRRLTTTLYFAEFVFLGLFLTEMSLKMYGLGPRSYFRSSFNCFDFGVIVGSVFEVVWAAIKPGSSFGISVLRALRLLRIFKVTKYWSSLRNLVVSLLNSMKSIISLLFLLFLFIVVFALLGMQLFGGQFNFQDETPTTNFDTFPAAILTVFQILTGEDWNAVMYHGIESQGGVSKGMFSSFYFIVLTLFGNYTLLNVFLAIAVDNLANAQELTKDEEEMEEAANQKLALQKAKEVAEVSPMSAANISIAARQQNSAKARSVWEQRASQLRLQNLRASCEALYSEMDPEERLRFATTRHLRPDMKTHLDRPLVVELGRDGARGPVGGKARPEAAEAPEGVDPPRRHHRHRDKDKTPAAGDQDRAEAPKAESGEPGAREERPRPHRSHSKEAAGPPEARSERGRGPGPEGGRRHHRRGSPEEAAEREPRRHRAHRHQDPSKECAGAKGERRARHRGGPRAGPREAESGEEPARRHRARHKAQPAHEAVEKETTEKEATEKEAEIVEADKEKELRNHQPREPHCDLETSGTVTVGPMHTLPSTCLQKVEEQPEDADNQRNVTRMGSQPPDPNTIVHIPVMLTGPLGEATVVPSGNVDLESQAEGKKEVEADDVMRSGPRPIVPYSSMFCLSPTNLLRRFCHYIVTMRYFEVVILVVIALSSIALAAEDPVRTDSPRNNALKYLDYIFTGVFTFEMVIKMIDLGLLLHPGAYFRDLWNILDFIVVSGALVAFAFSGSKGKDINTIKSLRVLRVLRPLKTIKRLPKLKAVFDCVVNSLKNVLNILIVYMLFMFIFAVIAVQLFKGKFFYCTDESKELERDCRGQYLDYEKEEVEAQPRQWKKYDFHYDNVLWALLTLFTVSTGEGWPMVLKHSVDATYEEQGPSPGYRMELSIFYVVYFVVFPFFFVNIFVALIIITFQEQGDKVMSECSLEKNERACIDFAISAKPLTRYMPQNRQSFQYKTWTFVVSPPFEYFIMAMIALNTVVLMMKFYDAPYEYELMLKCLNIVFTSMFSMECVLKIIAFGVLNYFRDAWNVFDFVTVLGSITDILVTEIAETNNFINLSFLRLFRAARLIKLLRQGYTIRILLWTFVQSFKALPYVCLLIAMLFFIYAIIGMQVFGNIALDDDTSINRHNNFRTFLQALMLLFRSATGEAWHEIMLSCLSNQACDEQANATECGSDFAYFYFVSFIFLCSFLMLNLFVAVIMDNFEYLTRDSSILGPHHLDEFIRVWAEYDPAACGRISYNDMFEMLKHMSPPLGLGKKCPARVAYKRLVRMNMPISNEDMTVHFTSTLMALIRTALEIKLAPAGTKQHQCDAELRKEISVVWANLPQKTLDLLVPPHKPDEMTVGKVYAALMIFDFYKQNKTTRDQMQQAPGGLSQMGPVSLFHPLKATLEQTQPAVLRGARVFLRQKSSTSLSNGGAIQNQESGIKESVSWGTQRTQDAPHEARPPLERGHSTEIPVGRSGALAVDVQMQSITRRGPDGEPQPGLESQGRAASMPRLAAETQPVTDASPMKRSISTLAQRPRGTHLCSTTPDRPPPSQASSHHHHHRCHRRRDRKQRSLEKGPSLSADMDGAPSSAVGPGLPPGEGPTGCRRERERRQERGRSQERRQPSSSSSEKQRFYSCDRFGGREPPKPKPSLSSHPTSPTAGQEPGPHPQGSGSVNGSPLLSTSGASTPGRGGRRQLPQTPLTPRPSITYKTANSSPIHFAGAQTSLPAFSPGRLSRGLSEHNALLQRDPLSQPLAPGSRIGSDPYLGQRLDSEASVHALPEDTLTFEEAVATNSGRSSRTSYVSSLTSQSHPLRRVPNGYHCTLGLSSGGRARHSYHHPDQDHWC
T1 sequence (P54284 whole entry partner): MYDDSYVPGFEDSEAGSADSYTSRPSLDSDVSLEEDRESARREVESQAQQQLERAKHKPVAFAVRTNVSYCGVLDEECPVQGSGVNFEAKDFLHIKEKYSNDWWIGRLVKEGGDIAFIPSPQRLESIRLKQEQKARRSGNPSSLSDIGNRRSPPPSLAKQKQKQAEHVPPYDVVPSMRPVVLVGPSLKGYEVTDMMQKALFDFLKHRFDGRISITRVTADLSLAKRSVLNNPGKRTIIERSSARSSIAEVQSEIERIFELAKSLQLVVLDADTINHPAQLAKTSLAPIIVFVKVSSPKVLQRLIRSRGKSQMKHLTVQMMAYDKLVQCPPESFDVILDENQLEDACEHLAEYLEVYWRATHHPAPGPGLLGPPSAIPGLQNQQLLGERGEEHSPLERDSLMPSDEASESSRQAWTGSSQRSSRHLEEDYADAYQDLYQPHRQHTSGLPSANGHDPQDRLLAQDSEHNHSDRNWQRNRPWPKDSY
T1 sequence (P54289 25-956 partner limits assumed): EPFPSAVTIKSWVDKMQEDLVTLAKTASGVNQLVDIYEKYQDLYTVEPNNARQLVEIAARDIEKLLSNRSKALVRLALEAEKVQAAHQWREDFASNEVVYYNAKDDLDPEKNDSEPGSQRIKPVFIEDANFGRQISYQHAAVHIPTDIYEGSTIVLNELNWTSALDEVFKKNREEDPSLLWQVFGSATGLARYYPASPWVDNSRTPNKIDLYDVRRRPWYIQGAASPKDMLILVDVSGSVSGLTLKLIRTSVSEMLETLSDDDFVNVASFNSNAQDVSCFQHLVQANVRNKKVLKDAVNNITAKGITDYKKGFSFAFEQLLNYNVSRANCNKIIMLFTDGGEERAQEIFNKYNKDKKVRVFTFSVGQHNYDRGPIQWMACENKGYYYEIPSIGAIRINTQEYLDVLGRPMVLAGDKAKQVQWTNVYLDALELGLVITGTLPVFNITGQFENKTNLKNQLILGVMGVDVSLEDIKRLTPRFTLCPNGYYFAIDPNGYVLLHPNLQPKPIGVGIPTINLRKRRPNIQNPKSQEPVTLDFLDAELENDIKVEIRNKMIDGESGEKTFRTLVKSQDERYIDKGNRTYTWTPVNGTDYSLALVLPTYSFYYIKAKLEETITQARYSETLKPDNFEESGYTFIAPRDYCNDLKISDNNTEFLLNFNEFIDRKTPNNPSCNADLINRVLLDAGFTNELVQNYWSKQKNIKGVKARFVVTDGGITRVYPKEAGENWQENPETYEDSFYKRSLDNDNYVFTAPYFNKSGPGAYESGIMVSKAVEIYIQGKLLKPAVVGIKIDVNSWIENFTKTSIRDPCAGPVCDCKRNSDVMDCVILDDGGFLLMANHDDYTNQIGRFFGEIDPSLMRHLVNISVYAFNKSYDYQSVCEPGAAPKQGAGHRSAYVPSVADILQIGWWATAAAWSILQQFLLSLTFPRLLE
T1 sequence (P54289 957-1103 partner limits assumed): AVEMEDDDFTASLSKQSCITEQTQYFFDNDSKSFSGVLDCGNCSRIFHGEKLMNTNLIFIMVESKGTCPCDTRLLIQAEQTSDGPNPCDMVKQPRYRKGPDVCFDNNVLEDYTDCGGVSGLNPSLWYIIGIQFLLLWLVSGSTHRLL
In short: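 IMR32 cells were dye-loaded 1.5 h at room temperature in HBSS/HEPES pH 7.4, then preincubated 60 min with compounds (10 μM to 0.1 nM) plus 1.3 mM CaCl2 and 2 μM nifedipine. Influx triggered by 5 mM CaCl2 with 80 mM KCl depolarization, FLIPR read; IC50 from sigmoidal fit of percent inhibition, usually n≥2.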

[1] = system: Sprague Dawley rats (CCI neuropathic pain); experiment: Chronic constriction injury (CCI) model of neuropathic pain, tactile allodynia by von Frey filaments; format: in vivo, rat; conditions: male Sprague Dawley rats, 10 mg/kg orally in 10% dimethyl sulfoxide/polyethylene glycol, mechanical allodynia 60 minutes after administration, calculated from log g paw withdrawal threshold
Description: Test compounds can be evaluated for analgesic effect in an in vivo model of neuropathic pain. Specifically, animals were prepared for testing, by use of a surgical procedure that induces neuropathic pain in one paw. IACUC guidelines for rodent survival surgery were followed. All surgical procedures were conducted on a clean, uncluttered surgical station. The area was wiped with a 70% ethanol solution before and after use. All instruments were sterilized by either autoclave or chemical sterilant (such as 2% glutaraldehyde>10 hours). Surgeons wore sterile gloves (for the initial procedure), clean lab coat or scrubs, hairnet or cap, and a half-mask respirator (when not working under a hood). Surgeons thoroughly washed their hands prior to donning sterile gloves. Gloves were disinfected in-between animals by cleansing with povidone iodine, chlorhexidine or 70% alcohol for at least 30 seconds. If multiple surgeries were performed, the instruments were cleaned and sterilized between procedures with hot glass beads (>10 seconds). To prevent thermal or chemical burns, the instruments were cooled by rinsing in sterile saline before use.
Male, Sprague Dawley® rats, 175-200 g were used for surgeries. To minimize post-operative dehydration/maintain blood volume during the surgery, warmed sterile saline or Lactate Ringers solution at 10-15 mL/kg was administered subcutaneously immediately before or after surgery. This facilitates better renal function and presumably anesthesia product excretion post surgery. For all surgical procedures, anesthesia was induced with 4-5% isoflurane. Anesthesia was maintained during surgery with 1-3% isoflurane. Following induction, the surgical site was carefully shaved and the exposed area was aseptically prepared with povidone-iodine scrub solution and 70% ethanol 2-3 times.
Chronic constriction injury (CCI), a model of neuropathic pain, was produced by following the method of Bennett and Xie (Bennett, G., et al. Pain, 1988, 33, 87-107). After site sterilization and anesthetic procedures outline above were completed, a 1.5 cm incision is made at the mid-thigh level to expose the biceps femoris and gluteous superficialis (right side), which were then separated by blunt dissection. The common sciatic nerve was exposed, isolated, and loosely ligated by four 5-0 chromic gut ligatures with <1 mm spacing between each. The surgical site was closed in layers—muscle is closed with 6.0 absorbable sutures, and the skin closed with wound clips. Animals were allowed to recover on a warming plate and were returned to their home cages when fully ambulatory. Animals were not be used for testing until at least 10 days following surgery.
To measure mechanical sensitivity, tactile allodynia was measured using calibrated von Frey filaments (Stoelting, Wood Dale, Ill.) as described by Chaplan et al. (Chaplan S., et al. J of Neuroscience Methods 1994, 53, 55-63). Filament strengths used were: 0.4, 0.6, 1.0, 2, 4, 6, 8, and 15 g. Rats were placed into inverted individual plastic containers (20×12.5×20 cm) on top of a suspended wire mesh grid, and acclimated to the test chambers for at least 20 minutes. Filaments were applied perpendicular to the mid-plantar paw surface with enough force to cause slight buckling and held in place for 6-8 seconds. Positive responses included an abrupt withdrawal of the paw from the stimulus or flinching behavior immediately following removal of the stimulus. The maximum force applied was 15 g. The 50% paw withdrawal threshold (PWT) was calculated in grams (g) using the up-down method of Dixon (Dixon W. Ann Rev Pharmacol Toxicol 1980, 20, 441-462). […] All compounds were orally administered at 10 mg/kg in 10% dimethyl sulfoxide/polyethylene glycol at a volume of 2.0 mL/kg, and mechanical allodynia was determined 60 minutes following compound administration
The data are reported as log g values and the percentage of maximum possible effect (% MPE) is calculated using log g values with the Formula: […]

| SMILES | IC50 (human Cav2.2) | % MPE [1] |
| --- | --- | --- |
| O=C(c1cccc(C(F)(F)F)c1)N1CCC(=O)N2C[C@H](Oc3cnc(C4CC4)cn3)C[C@H]2C1 [Example 32, (8R,9aS)-8-[(5-cyclopropylpyrazin-2-yl)oxy]-2-[3-(trifluoromethyl)benzoyl]octahydro-5H-pyrrolo[1,2-a][1,4]diazepin-5-one] | 1.72 µM | 46% |
| O=C1CCN(Cc2cccc(C(F)(F)F)c2)C[C@@H]2C[C@@H](Oc3cnc(C4CC4)cn3)CN12 [Example 42, (8R,9aS)-8-[(5-cyclopropylpyrazin-2-yl)oxy]-2-[3-(trifluoromethyl)benzyl]octahydro-5H-pyrrolo[1,2-a][1,4]diazepin-5-one] | 0.92 µM | 27% |
| O=C1CCN(Cc2ccc(OC(F)(F)F)cc2)C[C@@H]2C[C@@H](Oc3cnc(C4CC4)cn3)CN12 [Example 44, (8R,9aS)-8-[(5-cyclopropylpyrazin-2-yl)oxy]-2-[4-(trifluoromethoxy)benzyl]octahydro-5H-pyrrolo[1,2-a][1,4]diazepin-5-one] | 1.65 µM | 48% |
| O=C1CCN(c2ccc(C(F)(F)F)cn2)C[C@@H]2C[C@@H](Oc3cnc(C4CC4)cn3)CN12 [Example 47, (8R,9aS)-8-[(5-cyclopropylpyrazin-2-yl)oxy]-2-[5-(trifluoromethyl)pyridin-2-yl]octahydro-5H-pyrrolo[1,2-a][1,4]diazepin-5-one] | 2.52 µM | 73% |
